The test system of the experiment is HBV. Conditions: Hepatitis B virus, HePAD38, 144 h, read-out: Cell Activity.

On to `O=C(Nc1ccc(F)c(Cl)c1)N1CCn2nc(N[C@H]3CC[C@H](O)CC3)cc2C1` [Example 35, N-(3-chloro-4-fluorophenyl)-2-{[(1r,4r)-4-hydroxycyclohexyl]amino}-4H,5H,6H,7H-pyrazolo[1,5-a]pyrazine-5-carboxamide], for which the EC50 lay in the range of 1 to 10 µM. With `O=C(Nc1ccc(F)c(Cl)c1)N1CCn2nc(N[C@H]3C[C@H](O)C3)cc2C1` [Example 36, N-(3-chloro-4-fluorophenyl)-2-{[(1r,3r)-3-hydroxycyclobutyl]amino}-4H,5H,6H,7H-pyrazolo[1,5-a]pyrazine-5-carboxamide], the EC50 was 1 to 10 µM.

The record behind these values is US20220009931A1, “NOVEL UREA 6,7-DIHYDRO-4H-PYRAZOLO[1,5-A]PYRAZINES ACTIVE AGAINST THE HEPATITIS B VIRUS (HBV)” (AICURIS GMBH & CO. KG, priority 2018, published 2022).
